The text below walks through data of patent US20150191484A1, “NOVEL COMPOUNDS HAVING A TETRACYCLIC IRIDOID SKELTON AND AN ANTI-TRYPANOSOMAL AGENT COMPRISING THE SAME AS AN ACTIVE INGREDIENT” (NATIONAL UNIVERSITY CORPORATION TOKYO MEDICAL AND DENTAL …, priority 2014, published 2015).

Data set [1] concerns GUTat 3.1 strain of the bloodstream forms of T. b. brucei parasites. The data set is described as follows: Alamar Blue assay (trypanocidal activity). The data set is classed as cell-based, Trypanosoma brucei brucei. The conditions noted are these: Trypanosoma brucei, 48 h, T. b. brucei, Alamar Blue, 48 h; read-out: IC50 of anti-trypanosomal activity. The procedure:
(§1) The GUTat 3.1 strain of the bloodstream forms of T. b. brucei parasites was used for this study. Parasites were cultured in vitro according to the conditions established by Yabu et al, 1998.
(§2) Parasites were used when they reached a confluent concentration of 1×10^6 parasites/ml. Estimation of parasitemia was done with the Neubauer's counting chamber. Parasites were diluted to a concentration of 3×10^5 parasites/ml with HMI-9 medium and used for the various experiments.
The Alamar Blue assay was carried out in a 96-well plate. About 1.5×10^4 Parasites were seeded with varied concentrations of the Morinda lucida crude extract, ranging from as low as 0.78 μg/ml to as high as 200 μg/ml, in a ratio of 1:1 in 100 μl volume per well. Berberine, a compound known as anti-trypanocidal agent, was used as a positive control. […] The parasites were incubated with the plant extracts for 24 hours at 37° C. and under 5% CO2. After 24 hours, 10% Alamar Blue dye was added to each well and re-incubated for another 24 hours under the same conditions but in darkness. After a total of 48 hours, the plate was read for absorbance at 540 nm using the TECAN Sunrise Wako Spectrophotometer. An Absorbance-concentration (extract) curve was drawn and the IC50 value of the plant extract was extrapolated. Alamar Blue assay was also performed on the fractions and compounds purified from Morinda Lucida to determine their IC50 values. The IC50 values obtained were compared with that of the positive control and trypanocidal activity determined.
In general terms: The colour change of resazurin is a common sign of viable cells or microbes.

Data set [2] is described as follows: MTT cytotoxicity assay, NB1RGB. The data set is classed as cell-based, human. The conditions noted are these: human, NB1RGB normal fibroblast cells; NB1RGB normal fibroblast, 48 h, MTT. The procedure: (§3) The cytotoxic activity of natural products against mammalian cells is an important point in the search for active compounds with biological activity. […] In order to confirm the selective and potent anti-trypanosomal activity of ML-2-2 and ML-2-3, we examined their cytotoxicity in a panel of human cell lines including two human fibroblastic and 8 human cancer-derived cell lines. Cells were seeded in 96-well microplates and incubated with ML-2-2 and ML-2-3 for 48 h at 37° C. in a 5% CO2 humidified incubator. The viabilities of cells were determined with the MTT (3-(4,5-dimethylthiazol-2-yl)-2-5-diphenyltetrazolium bromide) assay. The selectivity index (SI) was determined using the following equation: IC50 against human cells/IC50 against T. brucei. The IC50 values of ML-2-3 were higher than those of ML-2-2 in all the cell lines examined. […] The SI of ML-2-2 indicates values below 1.00 in most cell lines. On the other hand, SI values of ML-2-3 were much higher than those of ML-2-2 in all tested cell lines.

The subject of data set [3] is NB1RGB (normal fibroblast). As to the kind of experiment: MTT cytotoxicity assay, NB1RGB. In kind it is cell-based, human. The conditions noted are these: IC50 against NB1RGB / IC50 against T. brucei. The procedure:
as §3
Background: Tetrazolium assays rely on reduction of a dye to a coloured formazan, in cell work by metabolically active cells.

Data set [4] can be described thus: MTT cytotoxicity assay, HF-19. In kind it is cell-based, human. The conditions noted are these: human, HF-19 normal fibroblast cells; HF-19 normal fibroblast, 48 h, MTT. How it is done:
as §3

Data set [5] relates to HF-19 (normal fibroblast). The data set is described as follows: MTT cytotoxicity assay, HF-19. The data set is classed as cell-based, human. The note with it: IC50 against HF-19 / IC50 against T. brucei. How it is done:
as §3

The nature of data set [6]: MTT cytotoxicity assay, Caco2. In kind it is cell-based, human. The conditions noted are these: human, Caco2 colon cancer cells; Caco2 colon cancer, 48 h, MTT. The procedure:
as §3

The next data set concerns Caco2 (colon cancer). The data set is described as follows: MTT cytotoxicity assay, Caco2. In kind it is cell-based, human. The conditions noted are these: IC50 against Caco2 / IC50 against T. brucei. How it is done:
as §3

A short description of data set [7]: MTT cytotoxicity assay, LoVo. In kind it is cell-based, human. The conditions noted are these: human, LoVo colon cancer cells; LoVo colon cancer, 48 h, MTT. The procedure:
as §3

For a further data set, the system named is LoVo (colon cancer). As to the kind of experiment: MTT cytotoxicity assay, LoVo. In kind it is cell-based, human. The note with it: IC50 against LoVo / IC50 against T. brucei. How it is done: as §3
Data set [8] is described as follows: MTT cytotoxicity assay, HCT-15. The data set is classed as cell-based, human. The note with it: human, HCT-15 colon cancer cells; HCT-15 colon cancer, 48 h, MTT. The procedure:
as §3

Another data set deals with HCT-15 (colon cancer). As to the kind of experiment: MTT cytotoxicity assay, HCT-15. In kind it is cell-based, human. The note with it: IC50 against HCT-15 / IC50 against T. brucei. The procedure: as §3
A short description of data set [9]: MTT cytotoxicity assay, KATOIII. The data set is classed as cell-based, human. The note with it: human, KATOIII stomach cancer cells; KATOIII stomach cancer, 48 h, MTT. The procedure: as §3
The next data set deals with KATOIII (stomach cancer). The data set is described as follows: MTT cytotoxicity assay, KATOIII. The conditions noted are these: IC50 against KATOIII / IC50 against T. brucei. The data set is classed as cell-based, human. The procedure:
as §3

Data set [10] is described as follows: MTT cytotoxicity assay, Jurkat. The conditions noted are these: human, Jurkat leukemia cells; Jurkat leukemia, 48 h, MTT. The data set is classed as cell-based, human. The procedure:
as §3

A further data set has as its system Jurkat (leukemia). The data set is described as follows: MTT cytotoxicity assay, Jurkat. The data set is classed as cell-based, human. The conditions noted are these: IC50 against Jurkat / IC50 against T. brucei. How it is done:
as §3

A short description of data set [11]: MTT cytotoxicity assay, U937. The data set is classed as cell-based, human. The conditions noted are these: human, U937 leukemia cells; U937 leukemia, 48 h, MTT. How it is done:
as §3

A further data set relates to U937 (leukemia). As to the kind of experiment: MTT cytotoxicity assay, U937. The data set is classed as cell-based, human. The note with it: IC50 against U937 / IC50 against T. brucei. The procedure: as §3
Data set [12] is described as follows: MTT cytotoxicity assay, HL-60. The conditions noted are these: human, HL-60 leukemia cells; HL-60 leukemia, 48 h, MTT. The data set is classed as cell-based, human. The procedure:
as §3

Another data set deals with HL-60 (leukemia). The data set is described as follows: MTT cytotoxicity assay, HL-60. In kind it is cell-based, human. The note with it: IC50 against HL-60 / IC50 against T. brucei. How it is done: as §3
Data set [13] is described as follows: MTT cytotoxicity assay, THP-1. The note with it: human, THP-1 leukemia cells; THP-1 leukemia, 48 h, MTT. In kind it is cell-based, human. How it is done: as §3
The subject of another data set is THP-1 (leukemia). The data set is described as follows: MTT cytotoxicity assay, THP-1. In kind it is cell-based, human. The note with it: IC50 against THP-1 / IC50 against T. brucei. The procedure: as §3
Data set [14] has as its system Trypanosoma cells. The data set is described as follows: Nexin apoptosis assay (FACS). The data set is classed as cell-based, Trypanosoma brucei brucei. The procedure:
as §1, §2
This assay was performed to detect both Phosphatidylserine (PS) signal and fracture of nuclear membraneas markers of apoptosis. Seeding and incubation of parasites with plant materials (extracts, fractions and compounds) were done under the same conditions in Alamar Blue assay. […] The contents of the wells were then subjected to FACS analysis using, the Millipore guava easyCyte 5HT FACS machine for the sorting and estimation of apoptotic parasites according to the manufacturer's instructions.

The subject of data set [15] is Trypanosoma cells. The data set is described as follows: Cell cycle assay (FACS). The note with it: four times of IC50: 15 μM ML-2-3, 5 μM ML-2-2; 24 hours. In kind it is cell-based, Trypanosoma brucei brucei. How it is done:
as §1, §2
This assay was performed to investigate any abnormal change in the parasites' cell cycle which may be caused by extracts/compounds with trypanocidal effect. […] The parasites were collected and transferred into 15 ml centrifuge tubes and centrifuged at 1700 rpm for 10 min, after which the supernatant was discarded. The pelleted parasites were re-suspended in 5 ml PBS solution and vortexed to form a suspension. The parasite suspension was centrifuged at 1700 rpm for 10 min and the supernatant discarded. The pelleted parasites were re-suspended in 1.5 ml of PBS and vortexed thoroughly before adding 3.5 ml absolute EtOH gradually to a final volume of 5 ml 70% EtOH. The parasites were then fixed at −20° C. for 1 h. The cell suspension was then centrifuged at 1700 rpm for 10 min and the supernatant discarded. Pelleted parasites were re-suspended in 200 μl of Guava Cell Cycle reagent, which has Propidium Iodide as its main constituent and incubated at room temperature for 30 min. The solution was transferred to wells of 96-well plate. The well contents were then subjected to FACS analysis using the Millipore guava easyCyte 5HT FACS machine, for the sorting of parasites according to the manufacturer's instructions.

Another data set has as its system Leishmania. The conditions noted are these: reported in literature; cited from earlier work.
The test system of data set [16] is nuclear DNA of Trypanosoma cells. The note with it: reported in literature; cited from earlier work.

Structures are written as SMILES. “Also recorded” adds a separate entry of the source.

In general, IC50 refers to the concentration needed to halve the response being measured. Take `COC(=O)C1=CO[C@@H]2O[C@H]3/C(=C\c4ccc(O)c(OC)c4)C(=O)O[C@]34C=C[C@H]1[C@H]24` [ML-2-2, (3aS,4aR,4a^1S,7aS,9aS,3E)-methyl 3-(4-hydroxy-3-methoxybenzylidene)-2-oxo-2,3,3a,4a,4a^1,7a-hexahydro-1,4,5-trioxadicyclopenta[a,hi]indene-7-carboxylate]: in [1], the IC50 was determined as 1.27 µM. In addition, the IC50 at 48 h in data set [2] is 6.01 µM; in data set [4] it was 12.1 µM; in data set [6] it was 1.35 µM; in data set [7], 0.11 µM; in [8] it was 16 µM; in data set [9] it was 0.21 µM. Further, the IC50 at 48 h stood at 2.45 µM in data set [10], 4.08 µM in data set [11], 3.87 µM in data set [12] and 6.98 µM in [13]. Also, the “SI (selectivity index)” value in data set [3] worked out at 4.73; in [5] it was 9.54; in the data set with Caco2 (colon cancer) it was 1.06; in the data set with LoVo (colon cancer), 0.09; in the data set on HCT-15 (colon cancer), 12.63; in the data set with KATOIII (stomach cancer), 0.17. Further, the “SI (selectivity index)” value in the data set with Jurkat (leukemia) stood at 1.93; with U937 (leukemia) it was 3.21; with HL-60 (leukemia), 3.05; in the data set on THP-1 (leukemia), 5.50. In addition, the induction of apoptosis entry in the data set with Trypanosoma cells [14] (6.25 μM, 24-hour incubation) is recorded as “no significant induction of apoptosis”. The “induction of apoptosis in Trypanosoma cells” value with Trypanosoma cells [14] (same concentration (6 μM)) is recorded as “did not”. Further, in the data set with Trypanosoma cells [15], the “numbers of cells in the G2 and M phase of cell cycle” value was “did not; also recorded: had no effect”.
`COC(=O)C1=CO[C@H]2O[C@@H]3/C(=C\c4ccc(O)c(OC)c4)C(=O)O[C@@]34C=C[C@@H]1[C@H]24` [Oruwacin]: the anti-Leishmania activity result in the data set with Leishmania was “has anti-Leishmania activity”.
On to `N=C(N)c1ccc(OCCCCCOc2ccc(C(=N)N)cc2)cc1` [Pentamidine], for which, in [16], the “effect on nuclear DNA of Trypanosoma cells” value was “no effect on nuclear DNA”.
